Literature values as cited in patent EP3796908B1, “CONTROLLED RELEASE PROPIVERINE FORMULATIONS” (Santa Farma Ilaç Sanayi A.S., priority 2018, dated 2020).
Like-named read-outs stand apart in the source and are kept apart here.

Columns and labels:
[1] = BCS classification
[2] = for maximal plasma concentrations reached after / mean absolute bioavailability: oral administration
[3] = administration of the ER capsule

solubility [1]: high solubility
mean Cmax [2, 3]: about 70 ng/ml
time in which Cmax is reached after administration [2, 3]: ≤ 9.5 h
maximal plasma concentrations reached after ([2]; immediate release): 2.3 h
mean absolute bioavailability ([2]; immediate release): 40.5%
maximal plasma concentrations reached after ([2]; modified release): 9.9 h
mean absolute bioavailability ([2]; modified release): 60.8 ± 17.3%
SMILES: CCCOC(C(=O)OC1CCN(C)CC1)(c1ccccc1)c1ccccc1 [propiverine, 1-methyl-4-piperidyl diphenylpropoxy acetate]
